Experimental data as given in PubChem BioAssay AID179 (DTP/NCI, 2004).
Where “and” joins values, the source holds several entries; their conditions need not be identical. Equal values may be shown once. Calls of active or inactive are those of the source.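 How the source made its calls: active means compounds giving half or more protection of infected cells from virus-caused growth loss, again on retest; inactive means the rest.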

System: CEM cells HIV-1 protection, formazan growth assay
Assay: NCI AIDS Antiviral Assay
Conditions: for IC50: measured here: growth of uninfected CEM cells
In short: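 Five concentrations of each compound were applied to infected and uninfected human CEM cells. Protection from HIV-1 was judged from growth measured with a soluble formazan assay.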

SMILES	EC50	IC50	outcome
CC(C)=C=CP(=O)(O)c1ccccc1	> 200 µM	> 200 µM	
CC(O)C1(CNc2cc(Cl)nc(N)n2)CCCC1 (stereo not drawn)	> 200 µM	74.1 µM	
c1ccc([P+](Cc2nc3ccccc3[nH]2)(c2ccccc2)c2ccccc2)cc1	> 200 µM	38.9 µM and 46.8 µM	
CCOC(=O)CCC(NC(=O)c1ccc(OCc2nc3cc(C(F)(F)F)ccc3nc2-c2ccccc2)cc1)C(=O)OCC (stereo not drawn)	> 200 µM	27.5 µM	
N#Cc1c(O)c(N=Nc2ccccc2F)c(=O)n2c1[nH]c1ccccc12	> 200 µM	18.6 µM	
CC(C)CC1C(=O)NCCC(NC(=O)C(N)Cc2ccc(O)cc2)C(=O)NC(Cc2ccccc2)C(=O)NC(Cc2ccccc2)NC1=O (stereo not drawn)	> 100 µM	> 100 µM	
COc1ccc(-c2cc(=O)c3c(OC)c(O)c(OC)cc3o2)cc1	> 200 µM	38.9 µM	
C=CCP(c1ccccc1)c1ccccc1	0.0631 µM	> 200 µM	
CCCCN(CCCC)CCCn1cnc2ncccc2c1=O			inactive
CCCCNCCC(SSSC(CCNCCCC)c1ccc(Cl)cc1)c1ccc(Cl)cc1 (stereo not drawn)	> 200 µM	3.47 µM	
COc1nc(N)nc2c1n(C)c[n+]2C	> 200 µM	141 µM	
CC(=O)OCC1OC(c2c(OC(C)=O)cc(C)c3c(=O)cc(/C(C(C)=O)=C(\C)O)oc23)C(OC(C)=O)C(OC(C)=O)C1OC(C)=O (stereo not drawn)	> 200 µM	> 200 µM	
C=C1CCC2CC1C(C(=O)c1c[nH]c3ccccc13)=NC2(C)C (stereo not drawn)	> 407 µM	> 407 µM	
Cc1cc(=O)n(CC(=O)O)c2ccccc12	> 200 µM	105 µM	
NNC(=O)N/N=C1/C(=O)N(c2ccc(Cl)c(Cl)c2)C(=O)C(=O)C1c1nc2ccccc2o1 (stereo not drawn)			inactive
O=c1oc2ccc(O)cc2c2ccccc12	> 170 µM	38 µM	
C=CCC1(C(C)C(O)c2cc(OC)c(OC)c(OC)c2)CC(O)C=CC12OCCO2 (stereo not drawn)	> 200 µM	9.12 µM	
CC(C)(C)OC(=O)NC(Cc1ccccc1)C(=O)N[C@H]1c2ccsc2/C(=N/O)[C@H]1O (stereo partly drawn)	> 200 µM	91.2 µM	
CCCCCCCCCCCCCCCCCC(CCCCCCCCCCCCCCCCC)OP(=O)(O)O			inactive
CC(=O)Nc1cc(S(=O)(=O)O)cc2cc(S(=O)(=O)O)c(N=Nc3ccc(C(=O)Nc4ccc5cc(S(=O)(=O)O)ccc5c4)cc3)c(O)c12			inactive
COc1nccnc1NS(=O)(=O)c1ccc(N)cc1	> 200 µM	> 200 µM	
c1cc2c3c(c1)ncn3C[C@@H]1CCCN1C2	> 295 µM	> 295 µM	

SMILES	EC50	IC50	outcome
CC12C=CC(=O)C=C1CCC1C3CCC(O)(C(=O)CO)C3(C)CC(O)C12F (stereo not drawn)			inactive
CCCCCCc1cn([C@H]2C[C@H](O)[C@@H](CO)O2)c(=O)[nH]c1=O			inactive
N#CC(/C(CCCC(=O)Nc1cccc([N+](=O)[O-])c1)=N\NC(=O)c1c(O)ccc2ccccc12)c1nc2ccccc2s1 (stereo not drawn)			inactive
O=C(O)CCCCSCCCCC(=O)O	> 1070 µM	> 1070 µM	
c1ccc([P+](Cc2ccco2)(c2ccccc2)c2ccccc2)cc1	> 200 µM	3.39 µM	
Cc1c(C)c2c(c(N)c1C#N)C(=O)N(OS(=O)(=O)c1ccccc1)C2=O	> 151 µM	25.7 µM	
CC(=O)OC1=C(CC2CCCC2=O)C(=O)CC1 (stereo not drawn)			inactive
CC/C(Cl)=N\OC(=O)Nc1ccc(OC)c(C)c1	> 20 µM	15.8 µM	
O=c1c2ccc(Cl)cc2oc2c(CSc3ccccc3)cccc12	> 200 µM	9.77 µM	
CCOC(=O)c1ccc(N2CCN(c3c(C)nc(N)nc3N)CC2)cc1	> 100 µM	0.0316 µM	
CCOC(=O)c1c(Cl)nc2ccccc2c1N=[N+]=[N-]	> 200 µM	31.6 µM	
NC(=O)C1C(=O)c2cccc3c2C1CCCC3 (stereo not drawn)	> 234 µM	69.2 µM	
COC(=O)c1ccn2c(N(C)C)[n+]3ccc(C(=O)OC)cc3c2c1	> 100 µM	> 100 µM	
CCc1cccc(C(C)C)c1NC(=O)C(=O)C(c1ccccc1)S(=O)(=O)Cc1ccccc1 (stereo not drawn)	> 200 µM	> 200 µM	
CCOC(=O)C1N(S(=O)(=O)c2ccc(C)cc2)CCC12c1ccccc1N(C(C)=O)C2C(/C=C/C(=O)OC)=C/C(=O)OC (stereo not drawn)			inactive
Oc1ccccc1C=Nc1ccc(SSc2ccc(N=Cc3ccccc3O)cc2)cc1	> 200 µM	27.5 µM	
C=C1CC2(OC1=O)c1ccccc1C=Cc1ccccc12	> 26.3 µM	4.57 µM	
NS(=O)(=O)c1ccc(Nc2c3ccccc3nc3c(C(=O)NCCCN(CCO)CCO)cccc23)cc1	> 200 µM	9.33 µM	
COc1cc2c(c(OC)c1OC)C(=O)CC2N (stereo not drawn)	> 200 µM	> 200 µM	
Nc1[nH]c(=O)[nH]c(=O)c1Cc1cccc(Cl)c1	> 200 µM	39.8 µM	
CC(=O)c1c(-c2ccc(Cl)cc2)c(C#N)c(=S)n(C2OC(CO)C(O)C(O)C2O)c1C (stereo not drawn)	> 200 µM	44.7 µM	
CCNC(=O)C(O)C1(O)CCC2[C@@H]3CCC4=CC(=O)C=C[C@]4(C)C3C(O)C[C@@]21C (stereo partly drawn)			inactive
